Patent US7138361B2, “Herbicidal heterocycles” (E. I. du Pont de Nemours and Company, priority 2000, dated 2006)

Tests used:
Assay type in all cases: in vivo
[1] = system: cocklebur (Xanthium strumarium); assay: Test C preemergence
Outline: (§1)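 Plants held in greenhouse for 12–14 days post-application are scored by eye against controls on a 0–100 control scale. Application timing: preemergence on sown seed, or postemergence on 2–18 cm plants.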

[2] = system: giant foxtail (Setaria faberii); assay: Test C preemergence
Outline: as §1

[3] = system: bermudagrass (Cynodon dactylon); assay: Test C preemergence
Outline: as §1

[4] = system: common ragweed (Ambrosia elatior); assay: Test C preemergence
Outline: as §1

[5] = system: lambsquarters (Chenopodium album); assay: Test C preemergence
Outline: as §1

[6] = system: goosegrass (Eleusine indica); assay: Test C preemergence
Outline: as §1

[7] = system: morningglory (Ipomoea hederacea); assay: Test C preemergence
Outline: as §1

[8] = system: corn (Zea mays); assay: Test C preemergence
Outline: as §1

[9] = system: Sunflower; assay: Test C preemergence; settings: Rate 125 g/ha; scale 0 to 100, 0 no effect, 100 complete control
[10] = system: yellow nutsedge (Cyperus esculentus); assay: Test C preemergence
Outline: as §1

[11] = system: velvetleaf (Abutilon theophrasti); assay: Test C preemergence
Outline: as §1

[12] = system: johnsongrass (Sorghum halepense); assay: Test C preemergence; settings: preemergence
Outline: as §1

[13] = system: soybean (Glycine max); assay: Test C preemergence
Outline: as §1

[14] = system: Nightshade; assay: Test C preemergence
[15] = system: woolly cupgrass (Eriochloa villosa); assay: Test C preemergence
Outline: as §1

[16] = system: pigweed (Amaranthus retroflexus); assay: Test C preemergence
Outline: as §1

[17] = system: crabgrass (Digitaria sanguinalis); assay: Test C preemergence
Outline: as §1

[18] = system: Surinam grass (Brachiaria decumbens); assay: Test C preemergence
Outline: as §1

[19] = system: kochia (Kochia scoparia); assay: Test C preemergence
Outline: as §1

[20] = system: Sunflower; assay: Test C preemergence; settings: Rate 500 g/ha, visual evaluation after 12 to 14 days
[21] = system: rice (Oryza saliva); assay: Test C flooded paddy test; settings: for Rice plant response rating: Flooded Paddy, scale 0 to 100, 0 no effect, 100 complete control
Outline: (§2)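 Flooded paddy, 2-leaf stage at treatment. Readout: visual % control vs untreated, 0–100, at 12–14 d in greenhouse.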

[22] = system: barnyardgrass (Echinochloa crus-galli); assay: Test C flooded paddy test; settings: for Barnyardgrass plant response rating: Flooded Paddy, scale 0 to 100, 0 no effect, 100 complete control; for Plant response rating, Barnyardgrass: flooded paddy test, scale 0 to 100 (0 no effect, 100 complete control)
Outline: as §2

[23] = Rate 125 g/ha, scale 0 to 100, 0 no effect, 100 complete control
[24] = preemergence, Rate 62 g/ha, scale 0 to 100
[25] = preemergence, Rate 500 g/ha, visual evaluation after 12 to 14 days
[26] = preemergence, Rate 250 g/ha, scale 0 to 100, 0 no effect, 100 complete control
[27] = Rate 250 g/ha, scale 0 to 100, 0 no effect, 100 complete control

CC(C)(C)c1ccn(C2CCN(c3cccc(SC(F)(F)F)c3)C2=O)n1 (stereo not shown) [Compound 93]
30: Plant response rating (0 to 100), Corn [8, 25] | Plant response rating, Surinam grass [18, 26] | Plant response rating, Kochia [19, 26]
20: Plant response rating (0 to 100), Cocklebur [1, 25] | Plant response rating, Foxtail, Giant [2, 23] | Plant response rating, Foxtail, Giant [2, 26] | Plant response rating, Goosegrass [6, 24] | Plant response rating (0 to 100), Morningglory [7, 25] | Plant response rating (0 to 100), Velvetleaf [11, 25] | Plant response rating (0 to 100), Soybean [13, 25] | Plant response rating, Cupgrass, Woolly [15, 23] | Plant response rating, Pigweed [16, 23] | Plant response rating, Pigweed [16, 26] | Plant response rating (0 to 100), Sunflower [20] | Rice plant response rating ([21]; Rate 250 g/ha)
90: Plant response rating, Bermudagrass [3, 23] | Plant response rating, Lambsquarters [5, 26]
60: Plant response rating (0 to 100), Foxtail, Giant [2, 25] | Barnyardgrass plant response rating ([22]; Rate 250 g/ha)
0: Plant response rating, Cocklebur [1, 23] | Plant response rating, Cocklebur [1, 24] | Plant response rating, Cocklebur [1, 26] | Plant response rating, Foxtail, Giant [2, 24] | Plant response rating, Bermudagrass [3, 24] | Plant response rating, Ragweed, Common [4, 23] | Plant response rating, Ragweed, Common [4, 24] | Plant response rating (0 to 100), Ragweed, Common [4, 25] | Plant response rating, Ragweed, Common [4, 26] | Plant response rating, Lambsquarters [5, 24] | Plant response rating, Morningglory [7, 23] | Plant response rating, Morningglory [7, 24] | Plant response rating, Morningglory [7, 26] | Plant response rating, Corn [8, 23] | Plant response rating, Corn [8, 24] | Plant response rating, Corn [8, 26] | Plant response rating, Sunflower [9] | Plant response rating, Nutsedge [10, 23] | Plant response rating, Nutsedge [10, 24] | Plant response rating (0 to 100), Nutsedge [10, 25] | Plant response rating, Nutsedge [10, 26] | Plant response rating, Velvetleaf [11, 23] | Plant response rating, Velvetleaf [11, 24] | Plant response rating, Velvetleaf [11, 26] | Plant response rating, Johnsongrass ([12]; Rate 62 g/ha, scale 0 to 100) | Plant response rating, Soybean [13, 23] | Plant response rating, Soybean [13, 24] | Plant response rating, Soybean [13, 26] | Plant response rating, Nightshade ([14]; Rate 62 g/ha, scale 0 to 100) | Plant response rating, Nightshade [14, 23] | Plant response rating, Nightshade [14, 27] | Plant response rating, Cupgrass, Woolly [15, 24] | Plant response rating, Pigweed [16, 24] | Plant response rating, Surinam grass [18, 24] | Plant response rating, Kochia [19, 23] | Plant response rating, Kochia [19, 24] | Plant response rating, Rice ([21]; flooded paddy test, Rate 62 g/ha, scale 0 to 100 (0 no effect, 100 complete control)) | Plant response rating, Barnyardgrass ([22]; Rate 62 g/ha)
10: Plant response rating (0 to 100), Johnsongrass ([12]; Rate 500 g/ha, visual evaluation after 12 to 14 days) | Plant response rating, Johnsongrass [12, 27] | Plant response rating, Surinam grass [18, 23]
50: Plant response rating, Barnyardgrass ([22]; Rate 125 g/ha)
100: Plant response rating (0 to 100 where 0 is no effect and 100 is complete control), Bermudagrass [3, 25] | Plant response rating, Bermudagrass [3, 26] | Plant response rating (0 to 100), Lambsquarters [5, 25] | Plant response rating, Goosegrass [6, 23] | Plant response rating (0 to 100), Goosegrass [6, 25] | Plant response rating, Goosegrass [6, 26] | Plant response rating, Crabgrass [17, 23] | Plant response rating (0 to 100), Crabgrass [17, 25] | Plant response rating, Crabgrass [17, 26]
80: Plant response rating (0 to 100), Cupgrass, Woolly [15, 25] | Plant response rating (0 to 100), Pigweed [16, 25] | Plant response rating, Crabgrass [17, 24] | Plant response rating (0 to 100), Kochia [19, 25] | Rice plant response rating ([21]; Rate 500 g/ha)
70: Plant response rating, Lambsquarters [5, 23] | Plant response rating, Cupgrass, Woolly [15, 26] | Plant response rating (0 to 100), Surinam grass [18, 25] | Barnyardgrass plant response rating ([22]; Rate 500 g/ha)
